Laboratory results published in US9969766B2, “20(R)-ginsenoside Rg3 polyacylated derivatives, preparation and application thereof” (priority 2014, dated 2018).

Experiments:
[1] = cited from earlier work
[2] = Solubility of the isolated products; type: physicochemical
mouse Lewis lung cancer [3] = experiment: Mouse Lewis lung cancer, toe subcutaneous inoculation, anti-tumor test; details: 100 mg/kg/d, ip × 14qod
Excerpt: (§1) human breast cancer Bcap-37 model, human lung cancer A549 model, human intestinal cancer LOVO model, human stomach cancer MGC model and human liver cancer QGY model, with tumor cell lines being of the second generation or more, mouse B16 melanoma cell line, mouse Lewis lung cancer model, mouse sarcoma s180 model, all passaged and preserved in Pharmacological Division of Shanghai Institute of Pharmaceutical Industry. 3. Experiment Animals Origins: nude mice, 6-week old, 18-22 g/mouse, provided by Laboratory Animal Center of Chinese Academy of Sciences, Shanghai Branch, with certification No. 2001A032. C57BL/6 mice and Kunming mice, 18-22 g/mouse, provided by Laboratory Animal Center of Chinese Academy of Sciences, Shanghai Branch, with certification SYXK (Shanghai) 2004-0015. Gender: male or female, the same gender for each batch in experiment Animal numbers: 10 mice and 10 nude mice for each of positive control group and test group in experiment, and 20 for negative control group. 4. Experiment Design Dose Settings: doses for 20(R)-ginsenoside Rg3 octo-acetate, 20(R)-ginsenoside Rg3 octo-n-butyrate and 20(R)-ginsenoside Rg3 octo-n-propionate were set as high-dose group (0.3 mg/kg/d), medium-dose group (0.06 mg/kg/d), and low-dose group (0.012 mg/kg/d). Dosage regimen: oral administration, twice daily. human tumor model and cell-inoculated mouse model: po×14 bid; mouse tumor-inoculated model: po×10 bid. Control Trial: negative control group: given with the same volume of 5% CMC-Na as the test group, and the same dosage regimen as the test group. positive control group: Cyclophosphamide CTX 30 mg/kg, […] 5. Experiment Method and Key Steps 5.1 Anti-Tumor Test 5.1.1 Subcutaneous Inoculation Model
(§2) Tumor cells of vigorous growth stage were taken under sterile condition and made into cell suspensions of about 1-2×10^7/ml by homogenization, the suspensions were inoculated subcutaneously at 0.2 ml/mouse in host mice and repeated on the next day according to the experiment design, the animals in each group were slaughtered after about three weeks, the tumors were collected and weighed, and the tumor inhibition rates were calculated according to the following equation: tumor inhibition rate %=[(average tumor weight of control group-average tumor weight of treatment group)/average tumor weight of control group]×100%

[4] = test system: human breast cancer Bcap-37 cells; experiment: Human breast cancer Bcap-37 subcutaneous inoculation in nude mice; details: 100 mg/kg/d, ip × 2qod
Excerpt: as §1, with “group:” for “group: Cyclophosphamide CTX 30 mg/kg,”
as §2
The same operation was repeated in human tumor xenograft model, except that the feed, packing, cage and contact instruments were all sterilized under high pressure before use and the nude mice were fed in a laminar flow rack. The tumors and tumor-bearing animal weight gains were dynamically measured (tumor size measured using caliper: long diameter/a, short diameter/b, and tumor bulk=a×b^2/2).

mouse melanoma B16 cells = experiment: Mouse melanoma B16 tail vein inoculation, lung metastasis; details: 100 mg/kg/d, ip × 2qod
Excerpt: (§3) human breast cancer Bcap-37 model, human lung cancer A549 model, human intestinal cancer LOVO model, human stomach cancer MGC model and human liver cancer QGY model, with tumor cell lines being of the second generation or more, mouse B16 melanoma cell line, mouse Lewis lung cancer model, mouse sarcoma s180 model, all passaged and preserved in Pharmacological Division of Shanghai Institute of Pharmaceutical Industry. 3. Experiment Animals Origins: nude mice, 6-week old, 18-22 g/mouse, provided by Laboratory Animal Center of Chinese Academy of Sciences, Shanghai Branch, with certification No. 2001A032. C57BL/6 mice and Kunming mice, 18-22 g/mouse, provided by Laboratory Animal Center of Chinese Academy of Sciences, Shanghai Branch, with certification SYXK (Shanghai) 2004-0015. Gender: male or female, the same gender for each batch in experiment Animal numbers: 10 mice and 10 nude mice for each of positive control group and test group in experiment, and 20 for negative control group. 4. Experiment Design Dose Settings: doses for 20(R)-ginsenoside Rg3 octo-acetate, 20(R)-ginsenoside Rg3 octo-n-butyrate and 20(R)-ginsenoside Rg3 octo-n-propionate were set as high-dose group (0.3 mg/kg/d), medium-dose group (0.06 mg/kg/d), and low-dose group (0.012 mg/kg/d). Dosage regimen: oral administration, twice daily. human tumor model and cell-inoculated mouse model: po×14 bid; mouse tumor-inoculated model: po×10 bid. Control Trial: negative control group: given with the same volume of 5% CMC-Na as the test group, and the same dosage regimen as the test group. positive control group: Cyclophosphamide CTX 30 mg/kg, MMC 2 mg/kg and 5Fu 30 mg/kg by intraperitoneal or intravenous administration, once daily, for seven consecutive days. 5. Experiment Method and Key Steps 5.1 Anti-Tumor Test 5.1.1 Subcutaneous Inoculation Model

mouse sarcoma S180 cells = experiment: Mouse sarcoma S180 metastasis model; details: 100 mg/kg/d, ip × 2qod
Excerpt: as §3

mouse Lewis lung cancer [5] = experiment: Mouse Lewis lung cancer (subcutaneous inoculation) metastasis model; details: 100 mg/kg/d, ip × 2qod
Excerpt: as §3, §2

[6] = test system: human stomach cancer MGC cells; experiment: Human stomach cancer MGC in-situ inoculation, survival; details: 100 mg/kg/d, ip × 2qod
Excerpt: as §3

[7] = test system: human intestinal cancer LOVO cells; details: 100 mg/kg/d, ip × 2qod
Excerpt: as §1
LOVO intestinal cancer cells (cultured in vitro) of logarithmic growth stage were taken under sterile condition and prepared into cell suspensions of about 1.8×10^7/ml using RPMI1640 culture medium as diluent. The nude mice were subjected to general anesthesia and cut in belly after routine disinfection to belly skin, the spleens were taken out and inoculated with LOVO intestinal cancer cell suspensions (0.05 ml/mouse) and then restored, the incisions were sutured, and the mice were placed in the cages and then put in the laminar flow rack.

[8] = test system: human liver cancer QGY cells; experiment: Human liver cancer QGY liver in-situ inoculation, survival; details: 100 mg/kg/d, ip × 2qod
Excerpt: as §3
Under sterile condition, the in vivo passage of the second generation of QGY tumor source of vigorous growth stage was prepared into cell suspensions of about 1-2×10^7/ml by homogenization (1:6), and the homogenates were filtered using 100-mesh stainless steel screen, getting ready for use. The nude mice were disinfected routinely and anaesthetized and cut at the xiphoid in the middle of the abdominal cavity to expose the liver, the cell suspensions (0.05 ml) were injected into liver parenchyma using imported 28 ga ½ ml syringes, the abdominal cavity was closed and then sutured layer by layer. The nude mice were fed in the laminar flow rack, with all the feed, packing, cage and contact instruments being sterilized under high pressure before use.

[9] = test system: human lung cancer A549 cells; experiment: Human lung cancer A549 (subcutaneous inoculation) metastasis model; details: 100 mg/kg/d, ip × 2qod

SMILES: CC(C)=CCC[C@@](C)(O)[C@H]1CC[C@]2(C)[C@@H]1[C@H](O)C[C@@H]1[C@@]3(C)CC[C@H](O[C@@H]4O[C@H](CO)[C@@H](O)[C@H](O)[C@H]4O[C@@H]4O[C@H](CO)[C@@H](O)[C@H](O)[C@H]4O)C(C)(C)[C@@H]3CC[C@]12C [20 (R)-ginsenoside Rg3, 20 (R)-Ginsenoside Rg3]
- Solubility in low polarity or non-polar solvent ([1]; petroleum ether, chloroform and other low polarity or non-polar solvent): not soluble
- Solubility in pyridine, ethanol solution, strong acid and strong alkaline solutions ([1]; pyridine, ethanol solution (50%˜70%), strong acid aqueous solutions (pH<2), strong alkaline solutions (pH>10)): easily soluble
- Solubility in water and other high polarity solvents ([1]; water and other high polarity solvents): not soluble

SMILES: CCCCCC(=O)OC[C@H]1O[C@@H](OC2CC[C@]3(C)C(CC[C@@]4(C)C3C[C@H](OC(=O)CCCCC)C3C([C@@](C)(O)CCC=C(C)C)CC[C@@]34C)C2(C)C)[C@H](OC2O[C@H](COC(=O)CCCCC)[C@@H](OC(=O)CCCCC)[C@H](OC(=O)CCCCC)[C@H]2OC(=O)CCCCC)[C@@H](OC(=O)CCCCC)[C@@H]1OC(=O)CCCCC (stereo partly drawn) [20(R)-Ginsenoside Rg3 octo-n-hexanoate]
- Solubility in ethanol ([2]; ethanol): soluble
- Solubility in water ([2]; water): soluble

SMILES: O=P1(N(CCCl)CCCl)NCCCO1 (centres unmarked) [CTX, cyclophosphamide, reference compound]
- Animal body weight (g) Start (mouse Lewis lung cancer [3]): 20.2 g
- Animal body weight (g) end (mouse Lewis lung cancer [3]): 21.9 g
- Tumor inhibition rate % (mouse Lewis lung cancer [3]): 93.92%
- Tumor-bearing toe weight (g) X ± SD (mouse Lewis lung cancer [3]): 0.0541 ± 0.02 g
- Animal body weight (g) Start [4]: 20.4 g
- Animal body weight (g) end [4]: 22.0 g
- Tumor inhibition rate % [4]: 89.90%
- Tumor weight (g) X ± SD [4]: 0.130 ± 0.06 g
- Animal body weight (g) Start (mouse melanoma B16 cells): 20.1 g
- Animal body weight (g) end (mouse melanoma B16 cells): 21.4 g
- Anti-metastasis rate % (mouse melanoma B16 cells): 95.30%
- Lung clone numbers (mice) X ± SD (mouse melanoma B16 cells): 2.26 ± 2.8
- Animal body weight (g) Start (mouse sarcoma S180 cells): 20.2 g
- Animal body weight (g) end (mouse sarcoma S180 cells): 21.0 g
- Anti-metastasis rate % (mouse sarcoma S180 cells): 93.84%
- Lung clone numbers (mice) X ± SD (mouse sarcoma S180 cells): 0.18 ± 2.1
- Animal body weight (g) Start (mouse Lewis lung cancer [5]): 19.4 g
- Animal body weight (g) end (mouse Lewis lung cancer [5]): 21.0 g
- Anti-metastasis rate % (mouse Lewis lung cancer [5]): 82.12%
- Lung clone numbers (mice) X ± SD (mouse Lewis lung cancer [5]): 0.50 ± 0.09
- Animal body weight (g) Start [6]: 19.5 g
- Animal body weight (g) end [6]: 21.1 g
- Average survival (d) X ± SD [6]: 41.22 ± 3.5 days
- Life extension rate T/C × % [6]: 181.01%
- Animal body weight (g) Start [7]: 19.5 g
- Animal body weight (g) end [7]: 21.1 g
- Average survival (d) X ± SD [7]: 29.36 ± 3.3 days
- Life extension rate T/C × % [7]: 214.91%
- Animal body weight (g) Start [8]: 19.1 g
- Animal body weight (g) end [8]: 21.0 g
- Average survival (d) X ± SD [8]: 37.23 ± 3.4 days
- Life extension rate T/C × % [8]: 159.44%
- Animal body weight (g) Start [9]: 19.6 g
- Animal body weight (g) end [9]: 21.3 g
- Anti-metastasis rate % [9]: 85.10%
- Lung clone numbers (mice) X ± SD [9]: 0.29 ± 0.12
